From publication PMC5580309, “Molecular-scale features that govern the effects of O-glycosylation on a carbohydrate-binding module” (Chemical Science, 2015)
Bridge positions count the residues as written; N and C are the ends. Peptide text beside a SMILES is read from it. * marks the point of attachment. X2 = OC[C@H]1O[C@H](O[C@H]2[C@@H](O)[C@H](O)[C@@H](CO)O[C@@H]2*)[C@@H](O)[C@@H](O)[C@@H]1O; αMan = OC[C@H]1O[C@H](*)[C@@H](O)[C@@H](O)[C@@H]1O

Molecular target: T1, thermolysin (Bacillus thermoproteolyticus, UniProt P00800)
T1 sequence (P00800 233-548): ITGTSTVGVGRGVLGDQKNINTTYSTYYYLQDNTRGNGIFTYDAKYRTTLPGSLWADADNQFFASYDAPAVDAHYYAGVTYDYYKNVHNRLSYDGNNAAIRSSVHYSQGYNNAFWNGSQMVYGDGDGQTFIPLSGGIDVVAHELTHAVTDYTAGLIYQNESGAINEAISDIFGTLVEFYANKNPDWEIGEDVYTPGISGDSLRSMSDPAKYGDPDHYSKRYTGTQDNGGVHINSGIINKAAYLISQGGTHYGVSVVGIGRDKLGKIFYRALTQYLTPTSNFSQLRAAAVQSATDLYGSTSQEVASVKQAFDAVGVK
Assay: Proteolytic stability: half-life to thermolysin degradation
Assay type: in vitro ADME
Conditions: for half-life: thermolysin (isolated protease), thermolysin degradation, mean of three trials ± SD, procedures as described previously (ESI ref 18); for Change in Half-Life to Thermolysin Degradation: glyco-variant minus its corresponding unglycosylated CBM (e.g. 2-1), *** not used in the correlation plot
Procedure: All error bars reported are standard deviations of data achieved from three separate trials.
cellulose that were determined in accordance with our procedures as described previously 18.
The results are presented as mean of three trials ± SD. *Denotes an averaged value of four trials

Compound | half-life | Change in Half-Life to Thermolysin Degradation
CC[C@H](C)[C@@H]1NC(=O)CNC(=O)CNC(=O)[C@@H](NC(=O)[C@H](CCC(N)=O)NC(=O)CNC(=O)[C@H](Cc2ccc(O)cc2)NC(=O)[C@H](Cc2c[nH]cn2)NC(=O)[C@H](CO)NC(=O)[C@H](CCC(N)=O)NC(=O)[C@@H](N)[C@@H](C)O)CSSC[C@@H]2NC(=O)[C@H]([C@@H](C)O)NC(=O)[C@H]([C@@H](C)O)NC(=O)CNC(=O)[C@H](CO)NC(=O)[C@H](C)NC(=O)[C@H](CSSC[C@@H](C(=O)N[C@@H](CC(C)C)C(=O)O)NC(=O)[C@H](CCC(N)=O)NC(=O)[C@H](CO)NC(=O)[C@H](Cc3ccc(O)cc3)NC(=O)[C@H](Cc3ccc(O)cc3)NC(=O)[C@@H]3CCCN3C(=O)[C@H](CC(N)=O)NC(=O)[C@H](CC(C)C)NC(=O)[C@H](C(C)C)NC(=O)[C@H](CCC(N)=O)NC2=O)NC(=O)[C@H](C(C)C)NC(=O)[C@H]([C@@H](C)O)NC(=O)[C@@H]2CCCN2C(=O)CNC(=O)[C@H](CO)NC(=O)[C@H](Cc2ccc(O)cc2)NC(=O)CNC1=O [CBM variant 1] (H-TQSHYGQCGGIGYSGPTVCASGTTCQVLNPYYSQCL-OH; disulfide 8-25, 19-35) | 13.8 ± 1.2 min | 
CC[C@H](C)[C@@H]1NC(=O)CNC(=O)CNC(=O)[C@@H](NC(=O)[C@H](CCC(N)=O)NC(=O)CNC(=O)[C@H](Cc2ccc(O)cc2)NC(=O)[C@H](Cc2c[nH]cn2)NC(=O)[C@H](CO[C@H]2O[C@H](CO)[C@@H](O)[C@H](O)[C@@H]2O)NC(=O)[C@H](CCC(N)=O)NC(=O)[C@@H](N)[C@@H](C)O)CSSC[C@@H]2NC(=O)[C@H]([C@@H](C)O)NC(=O)[C@H]([C@@H](C)O)NC(=O)CNC(=O)[C@H](CO)NC(=O)[C@H](C)NC(=O)[C@H](CSSC[C@@H](C(=O)N[C@@H](CC(C)C)C(=O)O)NC(=O)[C@H](CCC(N)=O)NC(=O)[C@H](CO)NC(=O)[C@H](Cc3ccc(O)cc3)NC(=O)[C@H](Cc3ccc(O)cc3)NC(=O)[C@@H]3CCCN3C(=O)[C@H](CC(N)=O)NC(=O)[C@H](CC(C)C)NC(=O)[C@H](C(C)C)NC(=O)[C@H](CCC(N)=O)NC2=O)NC(=O)[C@H](C(C)C)NC(=O)[C@H]([C@@H](C)O)NC(=O)[C@@H]2CCCN2C(=O)CNC(=O)[C@H](CO)NC(=O)[C@H](Cc2ccc(O)cc2)NC(=O)CNC1=O [CBM variant 2] (H-TQS(αMan)HYGQCGGIGYSGPTVCASGTTCQVLNPYYSQCL-OH; disulfide 8-25, 19-35) | 65.4 ± 0.6 min | 51.6 min
CC[C@H](C)[C@@H]1NC(=O)CNC(=O)CNC(=O)[C@@H](NC(=O)[C@H](CCC(N)=O)NC(=O)CNC(=O)[C@H](Cc2ccc(O)cc2)NC(=O)[C@H](Cc2c[nH]cn2)NC(=O)[C@H](CO[C@H]2O[C@H](CO)[C@@H](O)[C@H](O)[C@@H]2O[C@H]2O[C@H](CO)[C@@H](O)[C@H](O)[C@@H]2O)NC(=O)[C@H](CCC(N)=O)NC(=O)[C@@H](N)[C@@H](C)O)CSSC[C@@H]2NC(=O)[C@H]([C@@H](C)O)NC(=O)[C@H]([C@@H](C)O)NC(=O)CNC(=O)[C@H](CO)NC(=O)[C@H](C)NC(=O)[C@H](CSSC[C@@H](C(=O)N[C@@H](CC(C)C)C(=O)O)NC(=O)[C@H](CCC(N)=O)NC(=O)[C@H](CO)NC(=O)[C@H](Cc3ccc(O)cc3)NC(=O)[C@H](Cc3ccc(O)cc3)NC(=O)[C@@H]3CCCN3C(=O)[C@H](CC(N)=O)NC(=O)[C@H](CC(C)C)NC(=O)[C@H](C(C)C)NC(=O)[C@H](CCC(N)=O)NC2=O)NC(=O)[C@H](C(C)C)NC(=O)[C@H]([C@@H](C)O)NC(=O)[C@@H]2CCCN2C(=O)CNC(=O)[C@H](CO)NC(=O)[C@H](Cc2ccc(O)cc2)NC(=O)CNC1=O [CBM variant 3] (H-TQS(X2)HYGQCGGIGYSGPTVCASGTTCQVLNPYYSQCL-OH; disulfide 8-25, 19-35) | 128 ± 3.6 min | 114 min
CC[C@H](C)[C@@H]1NC(=O)CNC(=O)CNC(=O)[C@@H](NC(=O)[C@H](CCC(N)=O)NC(=O)CNC(=O)[C@H](Cc2ccc(O)cc2)NC(=O)[C@H](Cc2c[nH]cn2)NC(=O)[C@H](CO)NC(=O)[C@H](CCC(N)=O)NC(=O)[C@H](C)N)CSSC[C@@H]2NC(=O)[C@H]([C@@H](C)O)NC(=O)[C@H]([C@@H](C)O)NC(=O)CNC(=O)[C@H](CO)NC(=O)[C@H](C)NC(=O)[C@H](CSSC[C@@H](C(=O)N[C@@H](CC(C)C)C(=O)O)NC(=O)[C@H](CCC(N)=O)NC(=O)[C@H](CO)NC(=O)[C@H](Cc3ccc(O)cc3)NC(=O)[C@H](Cc3ccc(O)cc3)NC(=O)[C@@H]3CCCN3C(=O)[C@H](CC(N)=O)NC(=O)[C@H](CC(C)C)NC(=O)[C@H](C(C)C)NC(=O)[C@H](CCC(N)=O)NC2=O)NC(=O)[C@H](C(C)C)NC(=O)[C@H]([C@@H](C)O)NC(=O)[C@@H]2CCCN2C(=O)CNC(=O)[C@H](CO)NC(=O)[C@H](Cc2ccc(O)cc2)NC(=O)CNC1=O [CBM variant 4] (H-AQSHYGQCGGIGYSGPTVCASGTTCQVLNPYYSQCL-OH; disulfide 8-25, 19-35) | 9.6 ± 1.2 min | 
CC[C@H](C)[C@@H]1NC(=O)CNC(=O)CNC(=O)[C@@H](NC(=O)[C@H](CCC(N)=O)NC(=O)CNC(=O)[C@H](Cc2ccc(O)cc2)NC(=O)[C@H](Cc2c[nH]cn2)NC(=O)[C@H](CO[C@H]2O[C@H](CO)[C@@H](O)[C@H](O)[C@@H]2O)NC(=O)[C@H](CCC(N)=O)NC(=O)[C@H](C)N)CSSC[C@@H]2NC(=O)[C@H]([C@@H](C)O)NC(=O)[C@H]([C@@H](C)O)NC(=O)CNC(=O)[C@H](CO)NC(=O)[C@H](C)NC(=O)[C@H](CSSC[C@@H](C(=O)N[C@@H](CC(C)C)C(=O)O)NC(=O)[C@H](CCC(N)=O)NC(=O)[C@H](CO)NC(=O)[C@H](Cc3ccc(O)cc3)NC(=O)[C@H](Cc3ccc(O)cc3)NC(=O)[C@@H]3CCCN3C(=O)[C@H](CC(N)=O)NC(=O)[C@H](CC(C)C)NC(=O)[C@H](C(C)C)NC(=O)[C@H](CCC(N)=O)NC2=O)NC(=O)[C@H](C(C)C)NC(=O)[C@H]([C@@H](C)O)NC(=O)[C@@H]2CCCN2C(=O)CNC(=O)[C@H](CO)NC(=O)[C@H](Cc2ccc(O)cc2)NC(=O)CNC1=O [CBM variant 5] (H-AQS(αMan)HYGQCGGIGYSGPTVCASGTTCQVLNPYYSQCL-OH; disulfide 8-25, 19-35) | 44.4 ± 7.2 min | 34.8 min
CC[C@H](C)[C@@H]1NC(=O)CNC(=O)CNC(=O)[C@@H](NC(=O)[C@H](CCC(N)=O)NC(=O)CNC(=O)[C@H](Cc2ccc(O)cc2)NC(=O)[C@H](Cc2c[nH]cn2)NC(=O)[C@H](CO)NC(=O)[C@H](C)NC(=O)[C@@H](N)[C@@H](C)O)CSSC[C@@H]2NC(=O)[C@H]([C@@H](C)O)NC(=O)[C@H]([C@@H](C)O)NC(=O)CNC(=O)[C@H](CO)NC(=O)[C@H](C)NC(=O)[C@H](CSSC[C@@H](C(=O)N[C@@H](CC(C)C)C(=O)O)NC(=O)[C@H](CCC(N)=O)NC(=O)[C@H](CO)NC(=O)[C@H](Cc3ccc(O)cc3)NC(=O)[C@H](Cc3ccc(O)cc3)NC(=O)[C@@H]3CCCN3C(=O)[C@H](CC(N)=O)NC(=O)[C@H](CC(C)C)NC(=O)[C@H](C(C)C)NC(=O)[C@H](CCC(N)=O)NC2=O)NC(=O)[C@H](C(C)C)NC(=O)[C@H]([C@@H](C)O)NC(=O)[C@@H]2CCCN2C(=O)CNC(=O)[C@H](CO)NC(=O)[C@H](Cc2ccc(O)cc2)NC(=O)CNC1=O [CBM variant 6] (H-TASHYGQCGGIGYSGPTVCASGTTCQVLNPYYSQCL-OH; disulfide 8-25, 19-35) | 9.6 ± 2.4 min | 
CC[C@H](C)[C@@H]1NC(=O)CNC(=O)CNC(=O)[C@@H](NC(=O)[C@H](CCC(N)=O)NC(=O)CNC(=O)[C@H](Cc2ccc(O)cc2)NC(=O)[C@H](Cc2c[nH]cn2)NC(=O)[C@H](CO[C@H]2O[C@H](CO)[C@@H](O)[C@H](O)[C@@H]2O)NC(=O)[C@H](C)NC(=O)[C@@H](N)[C@@H](C)O)CSSC[C@@H]2NC(=O)[C@H]([C@@H](C)O)NC(=O)[C@H]([C@@H](C)O)NC(=O)CNC(=O)[C@H](CO)NC(=O)[C@H](C)NC(=O)[C@H](CSSC[C@@H](C(=O)N[C@@H](CC(C)C)C(=O)O)NC(=O)[C@H](CCC(N)=O)NC(=O)[C@H](CO)NC(=O)[C@H](Cc3ccc(O)cc3)NC(=O)[C@H](Cc3ccc(O)cc3)NC(=O)[C@@H]3CCCN3C(=O)[C@H](CC(N)=O)NC(=O)[C@H](CC(C)C)NC(=O)[C@H](C(C)C)NC(=O)[C@H](CCC(N)=O)NC2=O)NC(=O)[C@H](C(C)C)NC(=O)[C@H]([C@@H](C)O)NC(=O)[C@@H]2CCCN2C(=O)CNC(=O)[C@H](CO)NC(=O)[C@H](Cc2ccc(O)cc2)NC(=O)CNC1=O [CBM variant 7] (H-TAS(αMan)HYGQCGGIGYSGPTVCASGTTCQVLNPYYSQCL-OH; disulfide 8-25, 19-35) | 16.2 ± 3 min | 6.6 min
CC[C@H](C)[C@@H]1NC(=O)CNC(=O)CNC(=O)[C@@H](NC(=O)[C@H](CCC(N)=O)NC(=O)CNC(=O)[C@H](Cc2ccc(O)cc2)NC(=O)[C@H](C)NC(=O)[C@H](CO)NC(=O)[C@H](CCC(N)=O)NC(=O)[C@@H](N)[C@@H](C)O)CSSC[C@@H]2NC(=O)[C@H]([C@@H](C)O)NC(=O)[C@H]([C@@H](C)O)NC(=O)CNC(=O)[C@H](CO)NC(=O)[C@H](C)NC(=O)[C@H](CSSC[C@@H](C(=O)N[C@@H](CC(C)C)C(=O)O)NC(=O)[C@H](CCC(N)=O)NC(=O)[C@H](CO)NC(=O)[C@H](Cc3ccc(O)cc3)NC(=O)[C@H](Cc3ccc(O)cc3)NC(=O)[C@@H]3CCCN3C(=O)[C@H](CC(N)=O)NC(=O)[C@H](CC(C)C)NC(=O)[C@H](C(C)C)NC(=O)[C@H](CCC(N)=O)NC2=O)NC(=O)[C@H](C(C)C)NC(=O)[C@H]([C@@H](C)O)NC(=O)[C@@H]2CCCN2C(=O)CNC(=O)[C@H](CO)NC(=O)[C@H](Cc2ccc(O)cc2)NC(=O)CNC1=O [CBM variant 8] (H-TQSAYGQCGGIGYSGPTVCASGTTCQVLNPYYSQCL-OH; disulfide 8-25, 19-35) | 13.2 ± 3.6 min | 
